Assays:
PRMT5 [1] = target: T1, PRMT5 (Homo sapiens, UniProt O14744); assay: PRMT5 biochemical IC50 assay with SAM as cofactor; details: PRMT5, SAM as cofactor; read-out: SAM IC50
T1 construct: purchased Viva (custom protein)

PRMT5 [2] = target: T1, PRMT5; assay: PRMT5 biochemical IC50 assay with no cofactor; details: PRMT5, no cofactor; read-out: No Cofactor/rel IC50
From the text: Table 1 indicates IC50 values (μM) against PRMT5 for exemplary compounds in the presence of SAM as cofactor, with no cofactor, and with MTA as cofactor, respectively (columns 4-6). […] Ki values can be calculated from the IC50 values as described in the Examples section. As detailed in the Examples section, for the assay performed in the presence of SAM, IC50=Ki×1.5 (Ki=IC50/1.5).

PRMT5 [3] = target: T1, PRMT5; assay: PRMT5 biochemical IC50 assay with MTA as cofactor; details: PRMT5, MTA as cofactor; read-out: MTA IC50
[4] = tested on: HAP1 MTAP-intact cell line; assay: SDMA in-cell western assay, HAP1 MTAP-intact; type: cell-based; details: Homo sapiens, HAP1, SDMA in-cell western, HAP1 MTAP-intact; read-out: MTAP HAP1 intact IC50
Procedure, shortened: (§1)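 Isogenic HAP1 pair: the MTAP-intact line expresses endogenous MTAP, and the deleted line is MTAP-null. Symmetric dimethylarginine was detected by in-cell western and IC50 values derived for each line.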

[5] = tested on: HAP1 MTAP-deleted cell line; assay: SDMA in-cell western assay, HAP1 MTAP-deleted; type: cell-based; details: for IC50: Homo sapiens, HAP1, SDMA in-cell western, HAP1 MTAP-deleted, read-out: HAP 1 MTAP deleted IC50; for MTAP intact/deleted ratio: IC50 ratio HAP1 MTAP-intact / HAP1 MTAP-deleted, SDMA in-cell western
Procedure, shortened: as §1

[6] = tested on: HAP1 MTAP-deleted cell line; assay: Viability assay, MTAP-deleted cell line; type: cell-based; details: Homo sapiens, HAP1, viability IC50, MTAP-deleted cell line; read-out: HAP1 MTAP deleted viability
From the text: Table 1 additionally indicates IC50 values in a viability assay for the MTAP-deleted cell line (column 10), indicating the effect of treatment with compound on cell survival.

T1 sequence (O14744 whole entry): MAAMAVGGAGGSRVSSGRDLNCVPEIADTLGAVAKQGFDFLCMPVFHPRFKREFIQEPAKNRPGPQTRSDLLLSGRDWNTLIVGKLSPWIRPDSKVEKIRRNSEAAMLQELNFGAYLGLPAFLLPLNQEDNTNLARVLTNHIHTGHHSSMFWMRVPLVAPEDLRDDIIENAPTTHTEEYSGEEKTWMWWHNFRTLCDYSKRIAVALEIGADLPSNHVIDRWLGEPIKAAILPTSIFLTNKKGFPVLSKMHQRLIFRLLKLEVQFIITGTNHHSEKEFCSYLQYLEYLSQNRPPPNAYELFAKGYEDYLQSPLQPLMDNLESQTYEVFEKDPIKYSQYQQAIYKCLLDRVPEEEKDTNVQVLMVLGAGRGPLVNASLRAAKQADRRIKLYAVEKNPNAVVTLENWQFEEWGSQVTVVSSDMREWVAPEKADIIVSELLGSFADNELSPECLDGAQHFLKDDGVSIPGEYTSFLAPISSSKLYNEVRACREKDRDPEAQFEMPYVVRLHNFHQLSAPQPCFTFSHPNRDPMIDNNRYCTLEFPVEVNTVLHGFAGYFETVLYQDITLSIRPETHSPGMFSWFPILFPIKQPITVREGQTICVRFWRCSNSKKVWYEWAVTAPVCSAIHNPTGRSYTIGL
T1 sequence (Q9BQA1 whole entry partner): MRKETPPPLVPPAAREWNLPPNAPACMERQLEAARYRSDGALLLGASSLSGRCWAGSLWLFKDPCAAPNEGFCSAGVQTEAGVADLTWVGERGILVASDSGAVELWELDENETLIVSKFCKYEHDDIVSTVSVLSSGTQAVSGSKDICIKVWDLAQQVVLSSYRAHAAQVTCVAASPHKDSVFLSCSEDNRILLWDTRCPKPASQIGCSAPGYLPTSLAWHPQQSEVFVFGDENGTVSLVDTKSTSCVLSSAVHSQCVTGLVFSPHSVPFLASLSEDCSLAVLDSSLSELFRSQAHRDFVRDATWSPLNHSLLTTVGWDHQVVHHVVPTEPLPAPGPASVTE

IC50 (PRMT5 [1])	IC50 (PRMT5 [2])	IC50 (PRMT5 [3])	IC50 [4]	IC50 [5]	Compound	MTAP intact/deleted ratio [5]	IC50 [6]
> 500 nM	> 500 nM	> 500 nM	> 1000 nM	100 to 1000 nM	C[C@@H]1CC[C@@H](c2ccc(-c3cc[nH]n3)cc2)N(C(=O)C(=O)Nc2cncc(C(N)=O)c2)C1 (single isomer, unassigned) [Compound 627]	A (an IC50 ratio greater than or equal to 10 fold)	> 10000 nM
50 to 500 nM	< 50 nM	50 to 500 nM	100 to 1000 nM	< 100 nM	Cc1cc(NC(=O)C(=O)N2C[C@H](C)CC[C@H]2c2ccc(-c3cn[nH]c3)cc2)cnc1N (single isomer, unassigned) [Compound 628]	A (an IC50 ratio greater than or equal to 10 fold)	< 1000 nM
> 500 nM	> 500 nM	> 500 nM	> 1000 nM	> 1000 nM	Cc1cc(NC(=O)C(=O)N2C[C@@H](C)CC[C@@H]2c2ccc(-c3cn[nH]c3)cc2)cnc1N (single isomer, unassigned) [Compound 629]	B (an IC50 ratio greater than or equal to 3 fold but lower than 10 fold)	> 10000 nM
> 500 nM	> 500 nM	> 500 nM	> 1000 nM	100 to 1000 nM	Cc1cc(NC(=O)C(=O)N2C[C@H](C)CC[C@H]2c2ccc(NS(C)(=O)=O)cc2)cnc1C (single isomer, unassigned) [Compound 630]	A (an IC50 ratio greater than or equal to 10 fold)	> 10000 nM
> 500 nM	> 500 nM	> 500 nM	> 1000 nM	> 1000 nM	Cc1cc(NC(=O)C(=O)N2C[C@H](C)CC[C@H]2c2ccc3[nH]ncc3c2)cnc1C (single isomer, unassigned) [Compound 631]	C (an IC50 ratio of less than 3 fold)	> 10000 nM
< 50 nM	< 50 nM	< 50 nM	100 to 1000 nM	< 100 nM	Cc1cc(NC(=O)C(=O)N2C[C@@H](C)CC[C@@H]2c2ccc3sccc3c2)cnc1N (single isomer, unassigned) [Compound 634]	A (an IC50 ratio greater than or equal to 10 fold)	< 1000 nM
> 500 nM	> 500 nM	> 500 nM	> 1000 nM	100 to 1000 nM	C[C@H]1CC[C@H](c2ccc3[nH]ncc3c2F)N(C(=O)C(=O)Nc2cncc(C(N)=O)c2)C1 (single isomer, unassigned) [Compound 637]	A (an IC50 ratio greater than or equal to 10 fold)	> 10000 nM
< 50 nM	50 to 500 nM	< 50 nM	> 1000 nM	100 to 1000 nM	C[C@H]1CC[C@H](c2cc(Cl)cc(C(F)(F)F)c2)N(C(=O)C(=O)Nc2cncc(C(N)=O)c2)C1 (single isomer, unassigned) [Compound 646]	A (an IC50 ratio greater than or equal to 10 fold)	1000 to 10000 nM
50 to 500 nM	50 to 500 nM	< 50 nM	> 1000 nM	100 to 1000 nM	Cc1ccc([C@@H]2CC[C@@H](C)CN2C(=O)C(=O)Nc2cncc(C(N)=O)c2)cn1 (single isomer, unassigned) [Compound 654]	A (an IC50 ratio greater than or equal to 10 fold)	1000 to 10000 nM
< 50 nM	50 to 500 nM	< 50 nM	> 1000 nM	100 to 1000 nM	C[C@H]1CC[C@H](c2ccc(C(F)(F)F)c(Cl)c2)N(C(=O)C(=O)Nc2cncc(C(N)=O)c2)C1 (single isomer, unassigned) [Compound 655]	A (an IC50 ratio greater than or equal to 10 fold)	1000 to 10000 nM
50 to 500 nM	< 50 nM	< 50 nM	100 to 1000 nM	< 100 nM	Cc1cc(NC(=O)C(=O)N2C[C@@H](C)CC[C@@H]2c2ccc3c(c2)C(=O)NC3)cnc1N (single isomer, unassigned) [Compound 657]	A (an IC50 ratio greater than or equal to 10 fold)	< 1000 nM
50 to 500 nM	< 50 nM	< 50 nM	100 to 1000 nM	< 100 nM	Cc1cc(NC(=O)C(=O)N2C[C@H](C)CC[C@H]2c2cc(F)cc(Cl)c2)cnc1N (single isomer, unassigned) [Compound 659]	A (an IC50 ratio greater than or equal to 10 fold)	< 1000 nM
> 500 nM	> 500 nM	50 to 500 nM	> 1000 nM	> 1000 nM	Cc1cc(NC(=O)C(=O)N2C[C@@H](C)CC[C@@H]2c2cc(Cl)cc(Cl)c2)cnc1N (single isomer, unassigned) [Compound 660]	B (an IC50 ratio greater than or equal to 3 fold but lower than 10 fold)	> 10000 nM
50 to 500 nM	< 50 nM	< 50 nM	> 1000 nM	< 100 nM	C[C@@H]1CC[C@@H](c2cc(F)c3[nH]ncc3c2)N(C(=O)C(=O)Nc2cncc(C(N)=O)c2)C1 (single isomer, unassigned) [Compound 663]	A (an IC50 ratio greater than or equal to 10 fold)	1000 to 10000 nM
50 to 500 nM	50 to 500 nM	< 50 nM	> 1000 nM	100 to 1000 nM	Cc1cc(NC(=O)C(=O)N2C[C@@H](C)CC[C@@H]2c2cc(Cl)cc(C(F)(F)F)c2)cnc1N (single isomer, unassigned) [Compound 665]	A (an IC50 ratio greater than or equal to 10 fold)	1000 to 10000 nM
50 to 500 nM	< 50 nM	< 50 nM	100 to 1000 nM	< 100 nM	COc1ncc(NC(=O)C(=O)N2C[C@H](C)CC[C@H]2c2ccc3c(c2)CCC(=O)N3)cc1C(N)=O (single isomer, unassigned) [Compound 674]	A (an IC50 ratio greater than or equal to 10 fold)	< 1000 nM
> 500 nM	> 500 nM	50 to 500 nM	> 1000 nM	> 1000 nM	Cc1cc(NC(=O)C(=O)N2C[C@H](C)CC[C@H]2c2ccc(-c3ccn[nH]3)cc2)cnc1N (single isomer, unassigned) [Compound 675]	B (an IC50 ratio greater than or equal to 3 fold but lower than 10 fold)	> 10000 nM
50 to 500 nM	< 50 nM	< 50 nM	100 to 1000 nM	< 100 nM	Cc1cc(NC(=O)C(=O)N2C[C@@H](C)CC[C@@H]2c2ccc(-c3ccn[nH]3)cc2)cnc1N (single isomer, unassigned) [Compound 676]	B (an IC50 ratio greater than or equal to 3 fold but lower than 10 fold)	< 1000 nM
50 to 500 nM	< 50 nM	< 50 nM	> 1000 nM	< 100 nM	Cc1cc(NC(=O)C(=O)N2C[C@H](C)CC[C@H]2c2cc(Cl)cc(Cl)c2)cnc1N (single isomer, unassigned) [Compound 681]	A (an IC50 ratio greater than or equal to 10 fold)	1000 to 10000 nM
50 to 500 nM	50 to 500 nM	< 50 nM	> 1000 nM	100 to 1000 nM	C[C@H]1CN(C(=O)C(=O)Nc2cncc(C(N)=O)c2)[C@H](c2ccc(F)c(F)c2)CC1(F)F (single isomer, unassigned) [Compound 683]	A (an IC50 ratio greater than or equal to 10 fold)	1000 to 10000 nM
> 500 nM	> 500 nM	> 500 nM	> 1000 nM	> 1000 nM	Cc1cc(NC(=O)C(=O)N2C[C@H](C)C(F)(F)C[C@H]2c2ccc(F)c(F)c2)cnc1N (single isomer, unassigned) [Compound 684]	C (an IC50 ratio of less than 3 fold)	> 10000 nM
> 500 nM	> 500 nM	> 500 nM	> 1000 nM	> 1000 nM	CC(=O)Nc1ccc([C@H]2CC[C@H](C)CN2C(=O)C(=O)Nc2cncc(C(N)=O)c2)s1 (single isomer, unassigned) [Compound 686]	C (an IC50 ratio of less than 3 fold)	> 10000 nM
50 to 500 nM	< 50 nM	< 50 nM	100 to 1000 nM	< 100 nM	Cc1ccc([C@@H]2CC[C@@H](C)CN2C(=O)C(=O)Nc2cnc(N)c(C)c2)cn1 (single isomer, unassigned) [Compound 687]	A (an IC50 ratio greater than or equal to 10 fold)	< 1000 nM

— US11999727B2 (Tango Therapeutics, Inc., priority 2020, dated 2024)
